{
  "source": "patent US5244916A",
  "about": "“Inhibition of respiratory burst using posttranslational modification inhibitors” (The Scripps Research Institute, priority 1992, dated 1993)",
  "format_in_all_cases": "cell-based",
  "key": {"Rap1 [1]": {"system": "Rap1", "assay": "Western blot of Rap1 in membrane and cytosol fractions of HL-60 cells", "conditions": "10 μM compactin", "experimental": "Western blots were performed as described in Bokoch, et al., Cell Biol. 106: 1927-1936 (1988).\nThe ability of the concentrations of compactin used to inhibit endogenous HL-60 cell LMWG isoprenylation was assessed. Inhibition of Rapl isoprenylation was determined in two ways. Western blotting was used to evaluate the presence of Rap1 in cytosol or membrane fractions of compactin-treated vs. untreated cells (see FIG. 1). […] HL-60 cells were treated with ±10 μM compactin, and membrane and cytosol fractions were prepared as described in Example 1. Equal amounts of membrane protein (100 μg) and cytosol protein (70 μg), respectively,were loaded in each lane. Total membrane protein obtained in this experiment from about 3×10^8 cells was about 3 mg and cytosolic protein was about 2 mg. The samples were analyzed on 15% SDS-polyacrylamide gels (SDS-PAGE), transferred to nitrocellulose, and blotted with specific anti-Rapl antibody, R61, at 1:500 dilution. Detection was with ^125 I-goat anti-rabbit IgG and autoradiograms were exposed for 24-36 hours with intensifying screen at -70° C."}, "[2]": {"system": "NADPH oxidase in HL-60 cells", "assay": "Inhibition of NADPH oxidase activation / O2- generation in HL-60 cells (stimulus not singled out)", "description": "HL-60 cells were maintained in stationary culture in RPMI 1640 medium (Gibco, Grand Island, NY) containing 10% fetal bovine serum at 37° C in an atmosphere of 95 air and 5% CO2. The cells (about 8×10^5 /ml) were differentiated into neutrophil-like cells by treatment with 1.3% DMSO for six days (Harris, et al., J. Leukocyte Biol. 37: 407-422 (1985)). The cells were treated with the indicated levels of compactin or lovastatin by addition of a 1,000-fold concentrated stock solution to the appropriate concentration on day 4 of differentiation. […] In studies of the protective effect of mevalonic acid, the compound was added as the mevalonolactone (Sigma Chemical Co., St. Louis, MO) at a concentration of 1 mM to the cell culture on days 4 to 6. Similarly, cholesterol was added in the form of LDL prepared according to the method of Curtiss and Edgington (Curtiss, et al., J. Biol. Chem. 257: 15213-15221 (1991)) at a final concentration of 50 μg/ml; ubiquinone (Sigma Chemical Co., St. Louis, MO) was added as Coenzyme Q-10 at a final concentration of 0.5 mM; and dolichol (Sigma Chemical Co., St. Louis, MO) was added as a dispersion in phosphatidylcholine at a final concentration of 0.5 mM (Cutts, et al., J. Cell Physiol. 139: 550-555 (1989)). O2 --formation by HL-60 cells was assessed by the SOD-sensitive reduction of cytochrome c. Cells were suspended at 1×10^7 /ml in Krebs-Ringer Hepes buffer with 5.5 mM glucose (KRHG) and 50-100μl of cells were added to a cuvette containing 100 μM cytochrome c (type III, Sigma Chemical Co., St. Louis, MO), ±300 μg/ml SOD (Sigma Chemical Co., St. Louis, MO) in 700-750 μl KRHG. Cytochalasin b (Sigma Chemical Co., St. Louis, MO) was added to a final concentration of 5 μg/ml, and the cells were incubated at 37° C. for five minutes while a stable baseline at a wavelength of 550 nm was obtained. O2 --formation was initiated by the addition of 1 μM N-formylmethionylleucylphenylalanine (FMLP; Sigma Chemical Co., St. Louis, MO) or 1μg/ml phorbol myristate acetate (PMA; Sigma Chemical Co., St. Louis, MO). Cytochrome c reduction at 550nm was continuously monitored and maximal rate and extent of the reaction calculated."}, "Rap1 [3]": {"system": "Rap1", "assay": "Metabolic labeling and immune precipitation of processed and unprocessed Rap1 in HL-60 cells", "conditions": "various concentrations", "description": "Analysis of Rapl processing in HL-60 cells was performed by labeling cells (8×10^5 /ml) with 200μCi/ml ^35 S-Trans-label (ICN Biomedicals, Inc., Costa Mesa, CA) for 5 days during cell differentiation with 1.3% DMSO in Cys-Met-free medium containing 12% dialyzed fetal bovine serum. Various concentrations of compactin were included as indicated. Metabolically labeled cells were collected, washed once with isotonic NaCl, treated with 2.5 mM Hepes pH 7.5, 100 mM NaCl, 1 mM EDTA, 1 % Triton X-100, 2.5 μM PMSF, and 100U aprotonin. After a 15-minute incubation on ice, the cell lysates were pelleted in a microfuge for 2 minutes and then the supernatant was transferred to clean tubes containing 100 μl 4M NaCl, 5 μl 10% SDS, and 50 μl10% deoxycholate. The samples were boiled for two minutes, pelleted, and transferred to clean tubes containing 2 μl of the primary antibody, 142-24E05 (Chesa, et al., PNAS USA 84: 3234-3238 (1987); Bokoch, et al., J. Biol. Chem. 263: 16744-16749 (1988)). […]\nIn untreated cells, Rapl was present largely in the membrane fraction, with very little Rapl in the cytosol. […] Isoprenylation of Rapl was also assessed by metabolic labeling of the HL-60 cells with immune precipitation of Rap1, and analysis of the 22kD processed and 23kD unprocessed forms of Rap1 (Buss, et al., Mol. Cell, Biol. 11: 1523-1527 (1991))."}},
  "data": [
    {"smiles": "CC[C@H](C)C(=O)O[C@H]1CCC=C2C=C[C@H](C)[C@H](CC[C@@H]3C[C@@H](O)CC(=O)O3)[C@H]21", "note": "[compactin]", "values": [
      {"measurement": "Rap1 membrane association after treatment", "setting": "Rap1 [1]", "result": "a portion of this GTP-binding protein was still membrane associated"},
      {"measurement": "appearance of Rap1 in the cytosolic fraction", "setting": "Rap1 [1]", "result": "large amounts"},
      {"measurement": "total Rap1 previously associated with the membrane pellet now soluble", "setting": "Rap1 [1]; densitometry, n=3", "result": "60-70%"},
      {"measurement": "inhibition of NADPH oxidase activation, effective concentrations", "setting": "[2]", "result": "micromolar concentrations"},
      {"measurement": "inhibition at 10 µM", "setting": "[2]; Homo sapiens, HL-60, 10 μM compactin, response to FMLP or PMA, read-out: inhibition of O2- formation", "result": "> 85", "unit": "%"},
      {"measurement": "IC50", "setting": "[2]; Homo sapiens, DMSO-differentiated HL-60, response to FMLP or PMA, read-out: half-maximal inhibition of O2- formation", "result": "0.4 to 2", "unit": "µM"},
      {"measurement": "ability of HL-60 cells to generate O2-", "setting": "[2]; response to receptor stimuli and downstream activators", "result": "markedly inhibited"},
      {"measurement": "22 kD processed form of Rap1", "setting": "Rap1 [3]", "result": "dose-dependent decrease"},
      {"measurement": "23 kD unprocessed form of Rap1", "setting": "Rap1 [3]", "result": "proportional increase"}
    ]}
  ]
}
